Data from patent US20110230433A1, “COMPOSITIONS AND METHODS FOR TREATMENT OF CANCER” (UNIVERSITY OF WASHINGTON, priority 2010, published 2011).

What was measured:
SW480 = assay: Viability after 48 hr culture with analog, crystal violet staining; type: cell-based, human; details: SW480 (mismatch repair proficient)
Protocol: (§1) The concentration of each analog used in the serial transfer experiments can be 50% less than the highest dose at which there is no reduction in viability. Analogs that fail to be toxic can be used at 100 μM.
(§2) In Table 2, mismatch repair proficient and deficient cell lines were assayed for viability after growing for 48 hr with the indicated analogs in nM to mM concentrations.

HCT116 = assay: as above; type: cell-based, human; details: HCT116 (mismatch repair deficient)
Protocol: as §1, §2

E. coli = E. coli lacking repair of 8-OH-dG; cited from earlier work
DNA = details: cited from earlier work
dG = details: cited from earlier work
HIV = HIV in tissue culture; cited from earlier work
DNA polymerases = details: copying past site specific residues by DNA polymerases in vitro; cited from earlier work
[1] = tested on: human cells deficient in O^6-methyl transferase; details: compared to correct base-pairing with cytidine; cited from earlier work

Structure (SMILES)	Highest dose without decreased viability (SW480)	Highest dose without decreased viability (HCT116)	other results
Nc1ncc2[nH]cnc2n1 [2′-aminopurine, 2-Aminopurine]	0.00033 mM	0.00033 mM	
Nc1ncc2ncn([C@H]3C[C@H](O)[C@@H](CO)O3)c2n1 [2′-deoxyaminopurine, 2-Amino-9-(β-D-2′-deoxyribfuranosyl)purine]	>3.3 mM	>3.3 mM	
OC[C@H]1O[C@@H](n2cnc3c(O)ncnc32)C[C@@H]1O [2′-deoxyinosine]	>3.3 mM	>3.3 mM	
Nc1nc(=O)n([C@H]2C[C@H](O)[C@@H](CO)O2)cc1O [5-hydroxy-2′-deoxycytidine]	0.3 mM	0.03 mM	
Nc1nc2c(nc(O)n2[C@H]2C[C@H](O)[C@@H](CO)O2)c(=O)[nH]1 [8-OH-dG, 8-hydroxy deoxyguanosine]			increase in mutagenesis (E. coli): 1000 fold
CCN(N=O)C(N)=O [ENU, ethylnitrosourea, reference compound]	0.6 mg/mL	1.1 mg/mL	
OC[C@H]1O[C@@H](n2cnc3c2ncn2ccnc32)C[C@@H]1O [Etheno-dA, 1,N6-etheno dA]			frequency of non-complementary base-pairs (DNA): approximately 10%
O=c1n([C@H]2C[C@H](O)[C@@H](CO)O2)ccc2nccn12 [Etheno-dC, N^3,4-etheno dC]			frequency of non-complementary base-pairs (DNA): approximately 10%
O=c1[nH]c2nccn2c2c1ncn2C1C[C@H](O)[C@@H](CO)O1 (some centres unmarked) [Etheno-dG, N^2,3-etheno dG]			frequency of non-complementary base-pairs (DNA): approximately 10%
NC1=NC(=O)N([C@H]2C[C@H](O)[C@@H](CO)O2)CN1 [KP-1212, reference compound]	3.3 mM	3.3 mM	
CCOc1nc(=O)n([C@H]2C[C@H](O)[C@@H](CO)O2)cc1C [O^4-ethyl-2′-deoxythymidine]	>3.3 mM	0.33 mM	frequency of mispairing with dG (dG): approximately 25%
COc1nc(=O)n([C@H]2C[C@H](O)[C@@H](CO)O2)cc1C [O^4-methyl-2′-deoxythymidine]	>3.3 mM	>3.3 mM	induction of lethal mutagenesis (HIV): induce lethal mutagenesis of HIV; increase in mis-incorporation (DNA polymerases): 20%; frequency of mispairing with dG (dG): approximately 25%
CCOc1nc(N)nc2c1ncn2[C@H]1C[C@H](O)[C@@H](CO)O1 [O^6-ethyl dG]			frequency of base-pairing with thymidine [1]: 11%
COc1nc(N)nc2c1ncn2[C@H]1C[C@H](O)[C@@H](CO)O1 [O^6-methyl dG]			frequency of base-pairing with thymidine [1]: 19%
